Source: publication PMC11172460 (International Journal of Molecular Sciences, 2024)

Key:
[1] = Hydrolysis kinetics in rat liver homogenates; format: in vitro ADME
Description: Livers were obtained from male Wistar rats, which were sacrificed by decapitation, after a slight isoflurane anesthesia. The livers were immediately isolated, and, after washing with ice-cold saline solution, they were homogenized in 4 volumes (w/v) of Tris HCl (50 mM, pH 7.4, 4 °C) by using a Potter–Elvehjem apparatus. The supernatant obtained after centrifugation (2000× g for 10 min at 4 °C) was decanted off and stored at −80 °C before its use for kinetic studies.
Kinetic analysis of Fer-Ger was performed by its incubation at 37 °C in 3 mL of rat liver or brain homogenates at 30 µM (9.92 µg/mL) final concentration. At defined time intervals, 100 μL of homogenates were withdrawn and immediately treated by quenching them in EtOH (250 µL), then an internal standard (100 μM carbazole dissolved in EtOH, 50 µL) was added. The samples were centrifuged (13,500× g for 10 min), and the 300 μL aliquots were reduced to dryness under a nitrogen stream. […]
The Fer-Ger degradation in whole blood or homogenates was analyzed as exponential decay plots of its concentrations versus incubation time, and the related half-life values were obtained from the linear regression of the corresponding semi-logarithmic plots. The quality of the fits was evaluated by considering the correlation coefficients (r) and p values. […]
Fer-Ger and its hydrolysis product, Ger, were quantified by HPLC. […]

[2] = test system: neuronal differentiated N2a cells; experiment: MTT assay for evaluation of Fer-Ger toxicity; format: cell-based, mouse; settings: 1 h exposure
Description: N2a cells were seeded on T75 flasks and grown in Dulbecco’s Modified Eagle Medium (DMEM) containing Glutamax, supplemented with 100 μg/mL streptomycin, 100 IU/mL penicillin, and 10% fetal bovine serum (FBS) in a humidified 5% CO2 atmosphere at 37 °C. After two passages by trypsinization, cells were seeded at a density of 5 × 10^3 cells/well in 12-well plates with 2 mL of DMEM or at a density of 5 × 10^2 cells/well in 96-well plates with 0.2 mL of DMEM, depending on the study (see below). […]
The potential neurotoxicity of Fer-Ger in N2a differentiated cells, seeded at a density of 5 × 10^2 cells/well in a 96-well plate as reported above, was assayed with the 3-(4,5-dimethylthiazol-2-yl)-2,5-diphenyltetrazolium (MTT) test after incubation for 1 h at 37 °C in a humidified 5% of CO2 atmosphere at 37 °C with increasing concentrations (1, 5, 10, 40, 70, 100 µM) of Fer-Ger dissolved in 0.2 mL of DPBS, supplemented with 0.9 mM CaCl2, 0.5 mM MgCl2, 5.3 mM glucose, and 0.1% BSA to ensure the solubilization of the compound in aqueous media. […] Finally, the absorbance of each well was measured at 570 nm using a microtiter plate reader (Sunrise® Microplate Reader, Tecan Trading AG, Männedorf, Switzerland). The values were expressed as cell vitality percentages with respect to control in the absence of compounds. […]

[3] = test system: neuronal differentiated N2a cells; experiment: Time-course of uptake in neuronal differentiated N2a cells; format: cell-based, mouse
Description: N2a cells were seeded on T75 flasks and grown in Dulbecco’s Modified Eagle Medium (DMEM) containing Glutamax, supplemented with 100 μg/mL streptomycin, 100 IU/mL penicillin, and 10% fetal bovine serum (FBS) in a humidified 5% CO2 atmosphere at 37 °C. After two passages by trypsinization, cells were seeded at a density of 5 × 10^3 cells/well in 12-well plates with 2 mL of DMEM or at a density of 5 × 10^2 cells/well in 96-well plates with 0.2 mL of DMEM, depending on the study (see below). For neural differentiation, N2a cells were allowed to adhere and proliferate in wells for 4 days; then, after washing once with serum-free DMEM, differentiating medium composed of DMEM containing 1% HS and 20 μM all-trans-retinoic acid (atRA) was added in both the seeding conditions, up to 6 days of differentiation, after which the cells were used for the experiments.
The potential ability of Fer-Ger to enter the neuronal cells of the brain, where it may exert its neuroprotective effects, was evaluated in 9 days-neuronal differentiated N2a cells (5 × 10^3 cells/well in a 12-well plate) at its best non-toxic concentrations of 5 µM and 10 µM in MTT. For their optimal dissolution, 5 µM and 10 µM Fer-Ger solutions in DPBS containing 0.1% BSA were kept for 30 min at 37 °C before the uptake experiment. Each of the 12-well plates was rinsed once with 1 mL of DPBS, and then 1 mL of 5 µM and 10 µM Fer-Ger was added to the test wells, and the plate was incubated for pre-determined interval times (5, 15, 30, and 60 min) in a humidified 5% CO2 atmosphere at 37 °C. The incubation was stopped at each time by taking the incubation DPBS from each well and storing it in Eppendorf tubes. […] The final number of cells was evaluated on untreated wells following their trypsinization and counted using the Scepter^TM 2.0 automated cell counter (Merck Millipore, Milan, Italy). Each reported value represents the mean of four independent incubation experiments.

[4] = Kinetic analysis (stability) in Tris-HCl buffer; format: physicochemical; settings: Tris-HCl buffer pH 7.4 (with MeOH 70:30), 37 °C, three hours, 20 µM
Description: Kinetic analysis of Fer-Ger was performed by its incubation at 20 µM (6.61 µg/mL) final concentration and at 37 °C in 30 mL of a mixture of Tris-HCl buffer 50 mM (pH 7.4) and MeOH 70:30 (v/v). […] All the values were derived from the mean of three independent incubation experiments.
Fer-Ger and its hydrolysis product, Ger, were quantified by HPLC. The chromatographic apparatus consisted of a modular system (model LC-40D) pump and DAD detector (model SPD-M40, Shimadzu, Kyoto, Japan) and an injection valve with a 20 μL sample loop (model 7725; Rheodyne, IDEX, Torrance, CA, USA).

[5] = In vitro dissolution and release from SLMs; format: physicochemical; settings: within 6 h, DPBS/MeOH 70:30 v/v, 37 °C
Description: Fer-Ger dissolution and release from the SLMs were evaluated by adding raw Fer-Ger (about 0.1 mg) or SLMs, containing an equivalent amount of Fer-Ger, to 60 mL of a mixture of DPBS and methanol (70:30 v/v). The samples were kept under mechanical stirring at 50 rpm and 37 °C. At defined time intervals, 0.2 mL aliquots of the medium were withdrawn and replaced with an equal volume of fresh fluid. The aliquots were filtered (0.45 μm) and injected (10 μL) into the HPLC apparatus for Fer-Ger quantification. The dissolution or release (%) of Fer-Ger was calculated from its total amount incubated as a free compound or contained in the SLMs, respectively. The data were determined from the average of three independent experiments.

time to complete hydrolysis [1]: about 30 min
half-life at 30 µM ([1]; male, Wistar, liver homogenate, pH 7.4, 37 °C, 30 µM, pseudo-first-order kinetic): 3.94 ± 0.33 min
hydrolysis by neuronal cells (Ger detection intra- and extracellular) ([3]; N2a cells, 5 and 10 μM, up to 60 min): not hydrolyzed by neuronal cells
degradation in Tris-HCl buffer [4]: not degraded
raw powder solubilized (dissolution) [5]: about 30%
SMILES: COc1cc(/C=C/C(=O)OC/C=C(\C)CCC=C(C)C)ccc1O [Fer-Ger, Geranyl ferulate]
concentration at which neurotoxic effect starts ([2]; p < 0.05 vs untreated cells): 40 µM
IC50 ([2]; Mus musculus, neuronal differentiated N2a cells, read-out: IC50 value of cell viability): 84.09 ± 0.26 µM
intracellular concentration (cellular uptake), saturation ([3]; 5 μM Fer-Ger in DPBS, within 60 min, 37 °C): 18.36 ± 2.52 ng/5 × 10^4 cells
intracellular concentration (cellular uptake) ([3]; 5 μM Fer-Ger in DPBS, within the first 5 min of incubation, 37 °C): 9.46 ± 0.98 ng/5 × 10^4 cells
intracellular concentration (cellular uptake), steady state ([3]; 10 μM Fer-Ger in DPBS, within 60 min, 37 °C): 46.73 ± 2.25 ng/5 × 10^4 cells
intracellular concentration (cellular uptake) ([3]; 10 μM Fer-Ger in DPBS, within the first 5–15 min of incubation, 37 °C): 36.83 ± 1.65 ng/5 × 10^4 cells
